Consider one molecule from PubChem BioAssay AID1444 (PCMD, 2008).

The test deals with E3 ubiquitin-protein ligase Mdm2 (Homo sapiens) (UniProt Q00987). Kind of test: compounds raising luminescence in WT MDM2 cells – cell-based, wild-type MDM2, luciferase luminescence, dose response (AID 1444). As to conditions: MDM2 wild-type luciferase reporter cells, 2 h. In general terms: Reporter assays use an easily measured gene product as a stand-in for the process of interest.

What is called EC50 is the concentration giving half of the maximal effect.

Chain of E3 ubiquitin-protein ligase Mdm2 (Homo sapiens) (Q00987 whole entry, looked up): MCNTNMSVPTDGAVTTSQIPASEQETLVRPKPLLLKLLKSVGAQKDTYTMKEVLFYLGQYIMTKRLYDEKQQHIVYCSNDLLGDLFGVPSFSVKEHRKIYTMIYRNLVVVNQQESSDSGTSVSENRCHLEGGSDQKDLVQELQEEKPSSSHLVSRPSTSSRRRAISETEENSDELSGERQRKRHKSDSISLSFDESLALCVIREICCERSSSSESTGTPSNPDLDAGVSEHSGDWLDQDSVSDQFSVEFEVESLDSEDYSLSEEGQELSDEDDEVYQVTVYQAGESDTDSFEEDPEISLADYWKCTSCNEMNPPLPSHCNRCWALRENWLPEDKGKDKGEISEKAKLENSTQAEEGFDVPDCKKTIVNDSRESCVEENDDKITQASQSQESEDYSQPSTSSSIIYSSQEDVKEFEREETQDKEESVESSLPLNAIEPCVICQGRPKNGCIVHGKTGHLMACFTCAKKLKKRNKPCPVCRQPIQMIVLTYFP

`CC1=NN(c2cccc(C(=O)O)c2)C(=O)/C1=C\C=C/c1ccccc1`: the EC50 is 720 nM.
